According to PMC8805583, “Discovery of Herbacetin as a Novel SGK1 Inhibitor to Alleviate Myocardial Hypertrophy” (Advanced Science, 2021):

Key:
Experiment in all cases: KinaseProfiler Assay, AGC kinase panel
Assay type in all cases: biochemical
[1] = biological target: T1, G protein-coupled receptor kinase 3 (GRK3) (Homo sapiens, UniProt P35626); details: HBT 10 µmol
T1 construct: purchased Eurofins Discovery (KinaseProfiler Service)
T1 sequence (P35626 1-688): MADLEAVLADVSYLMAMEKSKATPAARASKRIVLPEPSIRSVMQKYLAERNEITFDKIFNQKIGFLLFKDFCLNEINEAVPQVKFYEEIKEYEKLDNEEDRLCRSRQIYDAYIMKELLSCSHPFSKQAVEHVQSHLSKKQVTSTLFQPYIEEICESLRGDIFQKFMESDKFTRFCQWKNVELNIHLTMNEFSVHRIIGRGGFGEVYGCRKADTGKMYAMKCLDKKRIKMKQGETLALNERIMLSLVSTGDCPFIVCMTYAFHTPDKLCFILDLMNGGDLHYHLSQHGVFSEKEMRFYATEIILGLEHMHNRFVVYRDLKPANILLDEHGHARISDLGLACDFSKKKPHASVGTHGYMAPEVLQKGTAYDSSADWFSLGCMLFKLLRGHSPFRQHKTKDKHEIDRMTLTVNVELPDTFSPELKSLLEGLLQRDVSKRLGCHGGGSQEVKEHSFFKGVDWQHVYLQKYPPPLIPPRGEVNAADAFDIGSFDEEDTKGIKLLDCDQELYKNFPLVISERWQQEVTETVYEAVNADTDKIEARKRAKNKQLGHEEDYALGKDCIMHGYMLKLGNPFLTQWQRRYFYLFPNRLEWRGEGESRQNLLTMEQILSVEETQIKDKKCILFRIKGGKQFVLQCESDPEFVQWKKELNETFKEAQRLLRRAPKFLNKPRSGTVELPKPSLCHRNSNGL
From the text: (§1) 20 structurally related flavonoids of HBT were collected, which differ in the number and position of —OH groups, and examined for their effects on SGK1 activity. Based on the docking prediction, the —OH group at the C‐4’ position of HBT was required for the interaction with the key SGK1 residue D177. Therefore, the 20 flavonoids were divided into two classes according to the presence or absence of an —OH group at C‐4’ (Figure 4B). At both tested concentrations, flavonoids with an —OH group at C‐4’ (class A) inhibited SGK1 more than those without an —OH group at C‐4’ (class B) (Figure 4C). The IC50 of each compound is listed in Figure 4D; and Figure S6 (Supporting Information). […] Conversely, the absence of an ‐OH group at C‐8 led to a greater than 10‐fold reduction in flavonoid SGK1 inhibitory activity, as shown by the performance of A1 or A4. […] The inhibitory activity of HBT (10 µmol) against 28 human AGC kinases was tested by KinaseProfiler Assay (Eurofins Discovery). The percentage of HBT's inhibitory activity against each kinase was normalized by the respective positive inhibitors of AGC kinases.
(§2) The initial crystal structures of SGK1 (PDB entry: 3HDN, 3HDM, and 2R5T) were obtained from the Protein Data Bank (PDB). The prepared inhibitors were then docked by Glide with the extra precision (XP) scoring mode to estimate the binding affinity for each protein–ligand complex. The detailed process of docking has been described previously.^[ [46] ^] HEK293T cells were transfected with SGK1 mutant plasmids. After 24 h, cells were lysed and immunoprecipitated with anti‐FLAG antibody and beads. Immune complexes were washed with kinase buffer and incubated in kinase buffer with substrate peptide for 1 h at 30 ℃ followed by LC/MS measurement as described above. KINOMEscan Profiling Service and KinaseProfiler Service Assay were provided by Eurofins Discovery.

[2] = biological target: T2, Rho-associated protein kinas-1 (ROCK-I) (Homo sapiens, UniProt Q13464); details: HBT 10 µmol
T2 construct: purchased Eurofins Discovery (KinaseProfiler Service)
T2 sequence (Q13464 whole entry): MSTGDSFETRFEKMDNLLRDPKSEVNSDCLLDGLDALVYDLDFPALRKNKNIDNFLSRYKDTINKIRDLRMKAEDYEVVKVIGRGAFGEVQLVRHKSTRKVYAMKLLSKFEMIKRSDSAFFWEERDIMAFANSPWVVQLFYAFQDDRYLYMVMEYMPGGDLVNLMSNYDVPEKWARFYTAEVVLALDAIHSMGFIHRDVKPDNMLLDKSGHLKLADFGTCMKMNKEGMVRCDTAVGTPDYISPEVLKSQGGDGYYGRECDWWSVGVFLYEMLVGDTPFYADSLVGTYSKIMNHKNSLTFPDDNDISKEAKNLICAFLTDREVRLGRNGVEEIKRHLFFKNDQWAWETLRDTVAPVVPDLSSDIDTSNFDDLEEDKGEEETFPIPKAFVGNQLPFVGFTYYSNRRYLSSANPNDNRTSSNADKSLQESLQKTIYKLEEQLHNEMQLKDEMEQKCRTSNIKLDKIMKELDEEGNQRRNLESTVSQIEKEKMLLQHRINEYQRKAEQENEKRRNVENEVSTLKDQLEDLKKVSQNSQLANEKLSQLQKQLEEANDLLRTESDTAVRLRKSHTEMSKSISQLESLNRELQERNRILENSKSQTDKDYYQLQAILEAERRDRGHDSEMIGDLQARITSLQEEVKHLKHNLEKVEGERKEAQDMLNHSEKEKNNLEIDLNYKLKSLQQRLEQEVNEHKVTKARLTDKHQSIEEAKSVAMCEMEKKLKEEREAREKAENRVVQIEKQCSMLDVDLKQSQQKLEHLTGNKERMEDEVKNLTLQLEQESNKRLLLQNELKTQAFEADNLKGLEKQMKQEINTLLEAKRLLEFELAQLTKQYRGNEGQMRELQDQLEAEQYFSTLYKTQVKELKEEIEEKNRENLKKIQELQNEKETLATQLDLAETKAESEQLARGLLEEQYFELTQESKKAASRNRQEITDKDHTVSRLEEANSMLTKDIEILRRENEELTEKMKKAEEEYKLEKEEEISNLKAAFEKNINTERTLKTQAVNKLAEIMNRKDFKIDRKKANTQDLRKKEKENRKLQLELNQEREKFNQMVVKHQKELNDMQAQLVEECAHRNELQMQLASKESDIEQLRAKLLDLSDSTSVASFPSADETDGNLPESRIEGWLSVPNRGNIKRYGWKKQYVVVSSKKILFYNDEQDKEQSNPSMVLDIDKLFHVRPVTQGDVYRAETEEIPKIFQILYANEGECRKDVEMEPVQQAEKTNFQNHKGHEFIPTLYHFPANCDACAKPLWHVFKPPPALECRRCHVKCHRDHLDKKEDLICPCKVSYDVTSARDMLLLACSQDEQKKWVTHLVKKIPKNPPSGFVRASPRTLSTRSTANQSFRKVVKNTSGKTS
From the text: as §1, §2

[3] = biological target: T3, SGK2 (Homo sapiens, UniProt Q9HBY8); details: HBT 10 µmol; normalized by positive inhibitors
T3 construct: purchased Eurofins Discovery (KinaseProfiler Service)
T3 sequence (Q9HBY8 1-367): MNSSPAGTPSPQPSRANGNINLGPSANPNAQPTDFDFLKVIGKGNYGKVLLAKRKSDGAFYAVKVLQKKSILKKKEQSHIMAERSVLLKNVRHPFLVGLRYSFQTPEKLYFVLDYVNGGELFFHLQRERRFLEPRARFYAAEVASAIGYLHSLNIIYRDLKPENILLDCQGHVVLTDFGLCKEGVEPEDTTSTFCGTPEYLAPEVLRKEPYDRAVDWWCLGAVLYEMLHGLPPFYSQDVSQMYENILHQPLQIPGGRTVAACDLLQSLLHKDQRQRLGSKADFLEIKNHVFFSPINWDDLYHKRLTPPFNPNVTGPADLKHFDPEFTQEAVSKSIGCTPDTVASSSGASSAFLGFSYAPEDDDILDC
From the text: as §1, §2

[4] = biological target: T4, SGK3 (Homo sapiens, UniProt Q96BR1); details: HBT 10 µmol; normalized by positive inhibitors
T4 construct: purchased Eurofins Discovery (KinaseProfiler Service)
T4 sequence (Q96BR1 1-496): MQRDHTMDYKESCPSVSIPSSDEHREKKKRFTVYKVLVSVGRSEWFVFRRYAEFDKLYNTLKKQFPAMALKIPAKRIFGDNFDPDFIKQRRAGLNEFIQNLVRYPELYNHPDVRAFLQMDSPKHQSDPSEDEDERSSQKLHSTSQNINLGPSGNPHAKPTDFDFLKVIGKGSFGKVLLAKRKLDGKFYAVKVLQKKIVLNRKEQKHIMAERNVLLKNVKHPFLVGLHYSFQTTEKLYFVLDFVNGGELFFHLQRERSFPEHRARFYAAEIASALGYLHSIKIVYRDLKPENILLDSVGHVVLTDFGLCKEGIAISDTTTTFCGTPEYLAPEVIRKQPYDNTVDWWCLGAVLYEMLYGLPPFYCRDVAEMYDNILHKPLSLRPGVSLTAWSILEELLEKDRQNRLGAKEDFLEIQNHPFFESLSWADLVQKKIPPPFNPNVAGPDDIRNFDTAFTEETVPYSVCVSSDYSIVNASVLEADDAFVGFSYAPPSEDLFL
From the text: as §1, §2

[5] = biological target: T5, catalytic subunit C-beta of PKA (PKAcβ) (Homo sapiens, UniProt P22694); details: HBT 10 µmol
T5 construct: purchased Eurofins Discovery (KinaseProfiler Service)
From the text: as §1, §2

O=c1c(O)c(-c2ccc(O)cc2)oc2c(O)c(O)cc(O)c12 [HBT, herbacetin]
inhibitory effect on GRK3 [1]: high inhibitory effects | inhibitory effect on ROCK-I [2]: high inhibitory effects | inhibitory activity on SGK2 [3]: 105% | inhibitory activity on SGK3 [4]: 77% | inhibitory effect on PKAcβ [5]: high inhibitory effects
